Reference: patent US20220133831A1, “Sarcopoterium Spinosum Extract for Treating Inflammation” (Ariel Scientific Innovations Ltd., priority 2019, published 2022)

Experiments:
Format in all cases: cell-based, mouse
RAW264.7 cells [1] = experiment: Cell viability assay (XTT); settings: 24 h
Experimental: (§1) In-vitro experiments were performed on RAW264.7 mouse macrophage cell line and on bone marrow-derived macrophages (BMDM). RAW264.7 cells were grown in high glucose DMEM containing 10% FBS, 2 mM 1-glutamine and 1% penicillin/streptomycin. For BMDM: C57bl/6J mice at age 10 weeks were purchased from Envigo, Israel. BMDMs were isolated from femur and tibia bones. Mice were sacrificed using a CO2 chamber. Mice legs were cut off, while fur, flesh and muscle tissue were removed in sterile environment followed by disconnection of the tibia from the femur. Bone marrow content was washed out using a complete RPMI and 23G syringe followed by filtration of the supernatant through a 21G syringe. The cells were centrifuged at 450×g for 10 min at room temperature and the pellet was resuspended in RPMI containing 10% FBS, 1% penicillin/streptomycin, HEPES buffer (120 Mm) and M-CSF (50 μg/ml). The media was replaced every 3 days. The experiment was performed on the 7th day of differentiation.
RAW264.7 cells were seeded (5×10^4 cells/well) in 96-well plates, and incubated overnight followed by treatment with LPS (200 ng/ml) and/or SSE (70 μg/ml). Cell viability was determined by XTT assay (Biological Industries, Israel. Cat. No.: 20-300-1000) according to manufacturer instructions.

RAW264.7 cells [2] = experiment: Cell morphology, bright field micrographs; settings: LPS or SSE, 24 h
Experimental: FIGS. 3A-3B show increased viability and affected cell morphology in […] cells in response to SSE treatment. RAW264.7 cells were treated with lipopolysaccharide (LPS) or SSE for 24 h. A. Viability was measured by XTT assay. Results are presented as the Mean±SEM, *P<0.05, **P<0.005, ***P<0.001 by one-way Anova, followed by Bonferroni's post-test. B. Micrographs of cells were performed using bright field Olympus imaging system, ×20 magnification. Upper two: left—control; right—LPS; lower two: left—SSE; right—LPS+SSE.
as §1, with “The cells were centrifuged at 450×g for 10 min at room temperature and the pellet was resuspended in RPMI containing 10% FBS, 1% penicillin/streptomycin, HEPES buffer (120 Mm) and M-CSF (50 μg/ml). The media was replaced every 3 days. The experiment was performed on the 7th day of differentiation.” left out

RAW264.7 cells [3] = experiment: Nitrite assay (Griess reagent), NO synthesis; settings: LPS and/or SSE, 24 h
Experimental: (§2) RAW264.7 cells (1×10^5 cells/ml) were cultured in 6-well plates. After 24 h incubating, NO synthesis was determined by assaying the culture supernatant for nitrite, using Griess reagent (Promega), according to manufacturer instructions.

RAW264.7 cells [4] = experiment: Real time PCR, mRNA expression of pro and anti-inflammatory genes; settings: LPS and/or SSE, 24 h
Experimental: (§3) Total RNA was extracted from Raw264.7 cells using TRI reagent (Molecular Research Center, Inc. Cincinnati, Ohio) according to manufacturer instructions. RNA (4 μg) was reverse transcribed by oligo-dT priming (Stratascript 5.0 multi-temperature reverse transcriptase, Stratagene) according to manufacturer instructions. Real-time PCR amplification reactions were performed using SYBR Fast Universal Ready-mix Kit (Kappa Biosystems), using the MxPro QPCR instrument (Stratagene). Primers for real time PCR reactions were synthesized by Sigma, Israel.

NFκB in RAW264.7 cells = experiment: NFκB activation (NFkB p65 Transcription Factor Assay Kit); settings: LPS 200 ng/ml, SSE 70 μg/ml
Experimental: RAW264.7 cells were treated with LPS (200 ng/ml) or SSE (70 μg/ml) for 3 h. NFκB activation was measured using NFkB p65 Transcription Factor Assay Kit (Abcam, Cambridge, UK), according to manufacturer instructions. In this assay, nuclear proteins were extracted using extraction buffer supplied by Abcam. The samples were homogenized and centrifuged at 12,000 RPM for 1 min. The supernatant was collected and protein concentration was measured using the Bradford method. Nuclear protein extract (5 μg) was added to the wells, which were coated with DNA sequence containing the NFkB response element. The selective binding of the transcription factor to its DNA response element was measured according to manufacturer's instructions.

RAW264.7 cells [5] = experiment: Western blot analysis of MAPK, STAT and Akt phosphorylation
Experimental: RAW264.7 cells were treated with LPS (200 ng/ml) and/or SSE (70 μg/ml) for 24 hr. Protein were lysed using RIPA buffer supplemented with protease and phosphatase inhibitors. The samples were homogenized and centrifuged at 14,000 rpm for 15 min. The supernatant was collected and protein concentration was measured using the Bradford method. Proteins (20 μg per lane) were separated by SDS-polyacrylamide gel electrophoresis and transferred onto nitrocellulose membranes. The membranes were blocked in 5% dry milk solution, incubated with the appropriate antibody solutions (5% BSA in 0.01% TBST) and proteins were immunodetected using the enhanced chemiluminescence method.

[6] = test system: bone marrow-derived macrophages (BMDM); experiment: Cell morphology of bone marrow-derived macrophages; settings: LPS or SSE, 24 hr
Experimental: FIGS. 6A-6D show an immunomodulatory effect of SSE on bone marrow-derived macrophages (BMDM). BMDM were isolated and cultured as described in the methods. Cells were treated with LPS and/or SSE for 24 hr. A. micrographs of cells were performed by bright field Olympus imaging system. Upper two: left—control; right—LPS; lower two: left—SSE; right—LPS+SSE. B. NO synthesis was measured by Griess reagent as described in the methods. C. mRNA was isolated and expression of selected genes was measured by RT-PCR as described in the methods. Results were normalized to the expression of the housekeeping gene RPS29, and are presented as the Mean±SEM. *P<0.05, **P<0.005, ***P<0.001 ****P<0.0001 compared to control, or as indicated in graphs, by one-way Anova, followed by Bonferroni's post-test. D. Western-blot analysis was performed as described in the methods. These are representative results of 3 independent experiments.
In-vitro experiments were performed on RAW264.7 mouse macrophage cell line and on bone marrow-derived macrophages (BMDM). RAW264.7 cells were grown in high glucose DMEM containing 10% FBS, 2 mM 1-glutamine and 1% penicillin/streptomycin. For BMDM: C57bl/6J mice at age 10 weeks were purchased from Envigo, Israel. BMDMs were isolated from femur and tibia bones. Mice were sacrificed using a CO2 chamber. […]

[7] = test system: bone marrow-derived macrophages (BMDM); experiment: NO secretion of BMDM (Griess reagent); settings: 24 hr
Experimental: as §1, §2

[8] = test system: bone marrow-derived macrophages (BMDM); experiment: mRNA expression in BMDM (RT-PCR); settings: 24 hr
Experimental: as §1, §3

[9] = test system: bone marrow-derived macrophages (BMDM); experiment: Western blot analysis of MAPK phosphorylation in BMDM
Experimental: as §1
RAW264.7 cells were treated with LPS (200 ng/ml) and/or SSE (70 μg/ml) for 24 hr. Protein were lysed using RIPA buffer supplemented with protease and phosphatase inhibitors. The samples were homogenized and centrifuged at 14,000 rpm for 15 min. The supernatant was collected and protein concentration was measured using the Bradford method. […]

[10] = LPS 200 ng/ml or SSE 70 μg/ml, 24 hr

lipopolysaccharide [LPS] was tested, and the “proliferation rate (viability by XTT)” value (RAW264.7 cells [1]) was “stimulatory effect”, the morphology of cells (RAW264.7 cells [2]) was “flattened, increased in size and acquired a distinct dendritic morphology” and the “NO synthesis (nitrite in supernatant)” value (RAW264.7 cells [3]) was “increased”. The “mRNA expression of IL1β” value (RAW264.7 cells [4]) was “increased”, the “mRNA expression of IL-6” value (RAW264.7 cells [4]) was “increased” and the “mRNA expression of MCP-1” value (RAW264.7 cells [4]) was “increased”. For the same substance, the “mRNA expression of TNFα” value (RAW264.7 cells [4]) was “increased”, the “NFκB activation (binding of NFκB to its DNA response element)” value (NFκB in RAW264.7 cells) was “increased” and the Akt phosphorylation (RAW264.7 cells [5]) was “induced”. For the same substance, the STAT1 phosphorylation (RAW264.7 cells [5]) was “not affected”, the “STAT3 phosphorylation on S727 residue” value (RAW264.7 cells [5]) was “induced to be phosphorylated” and the ERK1/2 phosphorylation (RAW264.7 cells [5]; [10]) was “phosphorylated”. The JNK phosphorylation (RAW264.7 cells [5]; [10]) was “phosphorylated”, the p38 phosphorylation (RAW264.7 cells [5]; [10]) was “phosphorylated” and the STATS phosphorylation (RAW264.7 cells [5]; data not shown) was “not detected at all”. The “morphology of BMDM” value [6] was “enlargement of the cells, with a minor vacuolization”, the “NO secretion (basal)” value [7] was “significantly increased” and the “mRNA expression of Arg1” value [8] was “also increased”. For the same substance, the “mRNA expression of IL1β” value [8] was “stimulated”, the “mRNA expression of IL-6” value [8] was “stimulated” and the “mRNA expression of IL-10” value [8] was “also increased”. The “mRNA expression of MCP-1” value [8] was “stimulated”, the “mRNA expression of TNFα” value [8] was “stimulated” and the Erk phosphorylation [9] was “phosphorylated”. For the same substance, the P38 phosphorylation [9] was “increased”.
